Oligonucleotides are written 5' to 3', each unit as a sugar letter and its base; * is a phosphorothioate linkage, no mark a phosphodiester; rarer units and linkages stand in square brackets, end groups in braces. Plain capitals give the bases only. d = 2'-deoxy (DNA); r = 2'-OH (RNA)
How the values were obtained:
Type in all cases: cell-based
[1] = test system: human PBMC; assay: Human PBMC TNF-α secretion, ELISA; settings: for TNF-α response of human PBMC (in words): Example 1, FIG. 2, RNA 50 μg/ml; for TNF-α response of human PBMC (in words) / dose-response of TNF-α secretion: 16 hours; for dose-response of TNF-α secretion: Example 2, 10, 3 or 1 μg RNA with 10 μg DOTAP per 200 μl well; for TNF response of human PBMC: FIG. 15, 30 μM
Experimental: (§1) Human peripheral blood mononuclear cells (PBMCs) were isolated from healthy donors, plated at 3×10^5 cells/well, stimulated in vitro with various test and control immunostimulatory agents for 16 hours, and then analyzed by enzyme-linked immunosorbent assay (ELISA) using matched antibody pairs from BD-Pharmingen for secreted cytokines IL-12 p40 and TNF-α, performed according to the manufacturer's protocol. Also included were certain negative controls, including medium alone and DOTAP (10 μg/200 μl culture well; “Liposomes”) alone. The control immunostimulatory agents included the imidazoquinolone R-848 (2 μg/ml), lipopolysaccharide (LPS; 1 μg/ml), Pam3Cys (5 μg/ml), poly IC (50 μg/ml), and CpG DNA (50 μg/ml). These are reported ligands for TLR7, TLR4, TLR2, TLR3, and TLR9, respectively. Test immunostimulatory agents included the following RNA molecules, each at 50 μg/ml, with and without DOTAP (10 μg total “with Liposomes” and “without Liposomes”, respectively): GUGUUUAC alone; GUAGGCAC alone; GUGUUUAC in combination with GUAGGCAC; GUAGGA; GAAGGCAC; CUAGGCAC; CUCGGCAC; and CCCCCCCC. These RNA oligonucleotides each contained a phosphorothioate linkage between the penultimate and 3′ terminal nucleoside.
(§2) The experiments described in the preceding example were repeated with varied concentrations of RNA oligonucleotides in order to assess the dose-response behavior of human PBMCs to G,U-containing RNA oligonucleotides of the invention. A total of 10, 3 or 1 μg RNA was added to 10 μg DOTAP and then added to the 200 μl culture wells. After 16 hours IL-12 p40 and TNF-α ELISAs were performed as described in Example 1.
(§3) In order to investigate the possibility of using cholesteryl ester-modified RNA oligomer in place of RNA oligomer plus cationic lipid, RNA oligomer GUGUGUGU was prepared with (R 1058) and without (R 1006) a 3′ cholesteryl ester modification. These two RNA oligomers with and without DOTAP, were added over a range of concentrations to overnight cultures of human PBMC. Culture supernatants were harvested, and human TNF-α, IL-12 p40, and IFN-α were measured by ELISA using matched antibody pairs from BD-Pharmingen according to the manufacturer's protocol.
(§4) RNA oligomers GUGUGUGU, GUGUGUG, GUGUGU, GUGUG, GUGU, GUG, and GU, with and without DOTAP, were added over a range of concentrations to overnight cultures of human PBMC. Culture supernatants were harvested, and human TNF-α, IL-12 p40, and IFN-α were measured by ELISA using matched antibody pairs from BD-Pharmingen according to the manufacturer's protocol.
as §4, with “oligomers,” for “oligomers GUGUGUGU, GUGUGUG, GUGUGU, GUGUG, GUGU, GUG, and GU,”
Human PBMC were cultured overnight in the presence of added DNA:RNA conjugate, with and without DOTAP. Culture supernatants were harvested and human TNF-α, IL-6, IL-12 p40, IP-10, and IFN-α were measured by ELISA using matched antibody pairs from BD-Pharmingen according to the manufacturer's protocol.
Human PBMC were cultured overnight in the presence of various concentrations (1, 3, and 10 μg/ml) of tRNA obtained from wheat germ, bovine, yeast, and E. coli sources, added to the culture medium with and without DOTAP. Culture supernatants were harvested and human TNF-α and IL-12 p40 were measured by ELISA using matched antibody pairs from BD-Pharmingen according to the manufacturer's protocol. […] In addition, E. coli tRNA at 3 and 10 μg/ml induced minor amounts of both cytokines even without DOTAP. […]
FIG. 10 depicts the responsiveness of human PBMC to stringent response factor (SRF). SRF is produced by rapidly growing bacteria (in this case Listeria monocytogenes) in rich media until their late log phase. The bacteria were pelleted and resuspended in an equal volume of PBS for 24 h. The mixture is centrifuged to remove the bacteria. […]

[2] = test system: human PBMC; assay: Human PBMC IL-12 p40 secretion, ELISA; settings: for IL-12 p40 response of human PBMC (in words): Example 1, FIG. 1, RNA 50 μg/ml with and without DOTAP, R-848 2 μg/ml, LPS 1 μg/ml, Pam3Cys 5 μg/ml, poly IC 50 μg/ml; for IL-12 p40 response of human PBMC (in words) / dose-response of IL-12 p40 secretion: 16 hours; for dose-response of IL-12 p40 secretion: Example 2, FIG. 3, 10, 3 or 1 μg RNA with 10 μg DOTAP per 200 μl well; for EC50 / IL-12 p40 max: Table 2, oligomer length, human PBMC overnight, including DOTAP
Experimental: as §1
as §2, with “1. […]” for “1.”
as §4, with “protocol. […]” for “protocol.”

[3] = test system: human PBMC; assay: Human PBMC IFN-α secretion, ELISA
Experimental: as §3, §4
as §4, with “oligomers,” for “oligomers GUGUGUGU, GUGUGUG, GUGUGU, GUGUG, GUGU, GUG, and GU,”
In like manner, an all-phosphodiester 40-mer capable of forming a stem-loop structure and having a base sequence as provided by 5′-[…]-3′ (R 1041; SEQ ID NO:10) was synthesized and tested in overnight culture with human PBMC.

[4] = Table 3, internucleoside linkages, human PBMC overnight, including DOTAP
[5] = Table 3, internucleoside linkages, human PBMC overnight, including DOTAP, read-out: TNF-α EC50
[6] = Table 2, oligomer length, human PBMC overnight, including DOTAP
[7] = Table 2, oligomer length, human PBMC overnight, including DOTAP, read-out: IFN-α EC50
[8] = Table 2, oligomer length, human PBMC overnight, including DOTAP, read-out: TNF-α EC50
[9] = Table 3, internucleoside linkages, human PBMC overnight, including DOTAP, read-out: IFN-α EC50
[10] = Table 1, human PBMC overnight culture, with DOTAP
[11] = Table 1, human PBMC overnight culture, with DOTAP, read-out: IFN-α + DOTAP EC50
[12] = Table 1, human PBMC overnight culture, without DOTAP
[13] = Table 1, human PBMC overnight culture, with DOTAP, read-out: TNF-α + DOTAP EC50
[14] = Table 1, human PBMC overnight culture, without DOTAP, read-out: TNF-α − DOTAP EC50

In the case of G*U_G*U_G*U*G*U [R 1055], the TNF-α max [1, 4] is reported as 20000 pg/mL and the EC50 [1, 5] is reported as over 20 µM.
In the case of GUAGGA, the “TNF-α response of human PBMC (in words)” value [1] is reported as “did not secrete significant amounts” and the “IL-12 p40 response of human PBMC (in words)” value (from here on “IL-12 p40 response”) [2] is reported as “little, if any immunostimulatory effect”.
G*U_G*U_G*U_G*U [R 1056] gave a TNF-α max [1, 4] of 12000 pg/mL and an EC50 [1, 5] of over 20 µM.
CUAGGCAC was tested, and the “dose-response of TNF-α secretion” value [1] was “increasing amounts” and the “dose-response of IL-12 p40 secretion” value [2] was “increasing amounts”.
With GUAGGCAC the “dose-response of TNF-α secretion” value [1] was “increasing amounts” and the “dose-response of IL-12 p40 secretion” value [2] was “increasing amounts”.
“5′-GUUGUGGUUGUGGUUGUG-3′ (chemistry not given here) [SEQ ID NO:1, G,U-rich RNA oligonucleotide]” was tested, and the “TNF response of human PBMC” value [1] was “responsive”.
Substance “G*U*G*U*G*U*G*U_dG_dG*dG*dG*dG*dG (rG*rU*rG*rU*rG*rU*rG*rUdGdG*dG*dG*dG*dG) [R 1060]” has a TNF-α max ([1]; Table 4, DNA:RNA conjugates, human PBMC overnight, including DOTAP) of 20000 pg/mL and an EC50 ([1]; Table 4, DNA:RNA conjugates, human PBMC overnight, including DOTAP, read-out: TNF-α EC50) of 4.9 µM.
CCCCCCCC was tested, and the “TNF-α response of human PBMC (in words)” value [1] was “did not secrete significant amounts”, the “dose-response of TNF-α secretion” value [1] was “did not appear to secrete significant amounts” and the “IL-12 p40 response” value [2] was “did not secrete significant amounts”. For the same substance, the “dose-response of IL-12 p40 secretion” value [2] was “appeared not to secrete”.
For GUGUGUG [R 1048], the IFN-α max [3, 6] was 2700 pg/mL, the EC50 [3, 7] was 4.6 µM and the TNF-α max [1, 6] was 30000 pg/mL. For the same substance, the EC50 [1, 8] was 2.2 µM, the EC50 [2] was 2.6 µM and the “IL-12 p40 max” value [2] was 10000 pg/mL.
With “SEQ ID NO:19: G,U-rich DNA oligonucleotide counterpart of SEQ ID NO:1 (GUUGUGGUUGUGGUUGUG; DNA oligonucleotide, linkage chemistry not given here, further chemistry not given here) [reference compound]” the “TNF response of human PBMC” value [1] was “not”.
In the case of GUGUUUAC, the “dose-response of TNF-α secretion” value [1] is reported as “increasing amounts” and the “dose-response of IL-12 p40 secretion” value [2] is reported as “increasing amounts”.
With GUGUGU [R 1049] the IFN-α max [3, 6] was 3400 pg/mL, the EC50 [3, 7] was 4.8 µM and the TNF-α max [1, 6] was 30000 pg/mL. The EC50 [1, 8] was 6.7 µM, the EC50 [2] was 2.1 µM and the “IL-12 p40 max” value [2] was 8000 pg/mL.
With GUG [R 1052] the IFN-α max [3, 6] was 800 pg/mL, the EC50 [3, 7] was 5.5 µM and the EC50 [2] was over 20 µM. For the same substance, the “IL-12 p40 max” value [2] was 6000 pg/mL.
Work on G_U_G_U_G_U_G_U [R 1057] yielded an IFN-α max [3, 4] of 6000 pg/mL and an EC50 [3, 9] of 0.1 µM.
With GUGUG [R 1050] the IFN-α max [3, 6] was 400 pg/mL, the EC50 [3, 7] was 6.9 µM and the TNF-α max [1, 6] was 40000 pg/mL. The EC50 [1, 8] was 7.6 µM, the EC50 [2] was 3.9 µM and the “IL-12 p40 max” value [2] was 14000 pg/mL.
GUGU [R 1051] was tested, and the EC50 [2] was over 20 µM and the “IL-12 p40 max” value [2] was 14000 pg/mL.
For GUGUGUGU [R 1058], the “IFN-α + DOTAP max” value [3, 10] was 3800 pg/mL, the EC50 [3, 11] was 0.5 µM and the “IFN-α − DOTAP max” value [3, 12] was 1500 pg/mL. For the same substance, the EC50 ([3]; Table 1, human PBMC overnight culture, without DOTAP, read-out: IFN-α − DOTAP EC50) was 0.5 µM, the “TNF-α + DOTAP max” value [1, 10] was 75000 pg/mL and the EC50 [1, 13] was 0.2 µM. For the same substance, the “TNF-α − DOTAP max” value [1, 12] was 3000 pg/mL, the EC50 [1, 14] was 1 µM and the “potency compared with R 1006 (cytokine induction in human PBMC)” value ([1]; both with and without DOTAP) was “more potent”.
Substance G*U_G*U*G*U*G*U [R 1054] has an IFN-α max [3, 4] of 3700 pg/mL, an EC50 [3, 9] of 6.7 µM and a TNF-α max [1, 4] of 40000 pg/mL. It also gave an EC50 [1, 5] of 5.6 µM.
GAAGGCAC was tested, and the “TNF-α response of human PBMC (in words)” value [1] was “did not secrete significant amounts”, the “dose-response of TNF-α secretion” value [1] was “did not appear to secrete significant amounts” and the “IL-12 p40 response” value [2] was “did not secrete significant amounts”. The “dose-response of IL-12 p40 secretion” value [2] was “appeared not to secrete”.
In the case of “5′-CACACACUGCUUAAGCGCUUGCCUGCUUAAGUAGUGUGUG-3′ (RNA, phosphodiester; forms stem-loop structure) [R 1041, all-phosphodiester 40-mer capable of forming a stem-loop structure]”, the IFN-α induction maximum ([3]; overnight culture with human PBMC) is reported as 5000 pg/mL and the EC50 ([3]; overnight culture with human PBMC, read-out: IFN-α induction EC50) is reported as under 0.1 µM.
G*U*G*U*G*U*G*U [R 1006] was tested, and the “IFN-α + DOTAP max” value [3, 10] was 5000 pg/mL, the EC50 [3, 11] was 4.5 µM and the IFN-α max [3, 6] was 5000 pg/mL. For the same substance, the EC50 [3, 7] was 4.5 µM, the IFN-α max [3, 4] was 5000 pg/mL and the EC50 [3, 9] was 4.5 µM. For the same substance, the “TNF-α + DOTAP max” value [1, 10] was 40000 pg/mL, the EC50 [1, 13] was 2.8 µM and the “TNF-α − DOTAP max” value [1, 12] was 2200 pg/mL. The EC50 [1, 14] was 7.8 µM, the TNF-α max [1, 6] was 40000 pg/mL and the EC50 [1, 8] was 2.8 µM. For the same substance, the TNF-α max [1, 4] was 40000 pg/mL, the EC50 [1, 5] was 2.8 µM and the EC50 [2] was 1.6 µM. For the same substance, the “IL-12 p40 max” value [2] was 7000 pg/mL.
CUCGGCAC was tested, and the “dose-response of TNF-α secretion” value [1] was “increasing amounts” and the “dose-response of IL-12 p40 secretion” value [2] was “increasing amounts”.

Reference: patent US9428536B2, “Immunostimulatory G, U-containing oligoribonucleotides” (Zoetis Belgium SA, priority 2002, dated 2016)
